Structures can show the parent of a compound that is named as a salt. Where two headings read alike, the source gives them in different places.
Target: T1, human CB2 receptors (Homo sapiens, UniProt P34972)
T1 construct: expressed in transfected cells; membranes used
Assay: Affinity for the human CB2 cannabinoid receptors: inhibition of [3H]-CP55940 binding to transfected CHO-K1 cell membranes
Conditions: [3H]-CP55940 1 nM, CHO-K1 membranes expressing human CB2, Cheng-Prusoff correction
Description: The affinity of the compounds of the invention for the human CB2 receptors is determined by measuring the inhibition of the binding of [^3H]-CP55940 to transfected CHO-K1 cell membrane preparations.
The cells are collected with 0.5 mM of EDTA and centrifuged at 500 g for 5 minutes at 4° C. The pellet is re-suspended in phosphate buffered saline medium (PBS) and centrifuged at 500 g for 5 minutes at 4° C. The pellet is re-suspended in a Tris 50 mM buffer medium at pH 7.4 and centrifuged at 500 g for 5 minutes at 4° C. The cells are lysed by sonication and centrifuged at 39,000 g for 10 minutes at 4° C. The pellet is re-suspended in the Tris 50 mM buffer medium at pH 7.4 and centrifuged at 50,000 g for 10 minutes at 4° C. The membranes obtained in this last pellet are stored at −80° C.
Measurement of the competitive inhibition of the binding of the [^3H]-CP55940 to the CB2 receptors is carried out in duplicate using 96-well polypropylene plates. The cell membranes (10 μg of proteins/well) are incubated with the [^3H]-CP55940 (1 nM) for 60 minutes at 25° C. in a Tris-HCl 50 mM buffer medium, pH 7.4, comprising 0.1% bovine serum albumin (BSA), 5 mM of MgCl2, and 50 μg/ml of bacitracin.
The filters are washed with Tris-HCl 50 mM buffer, pH 7.4 at 0-4° C. and the radioactivity present is determined using a counter (Packard Top Count).
The specific binding is obtained by subtracting the non-specific binding (determined in the presence of 0.1 μM of WIN55212-2 from the total binding). The data are analyzed by computer-assisted non-linear regression (MDL). For each test, a Cheng-Prusoff correction is made in order to convert the IC50 to the inhibition constant, Ki.
where [L] is the concentration of the radioligand used in the test and Kd is the radioligand equilibrium disassociation constant.

T1 sequence (P34972 whole entry): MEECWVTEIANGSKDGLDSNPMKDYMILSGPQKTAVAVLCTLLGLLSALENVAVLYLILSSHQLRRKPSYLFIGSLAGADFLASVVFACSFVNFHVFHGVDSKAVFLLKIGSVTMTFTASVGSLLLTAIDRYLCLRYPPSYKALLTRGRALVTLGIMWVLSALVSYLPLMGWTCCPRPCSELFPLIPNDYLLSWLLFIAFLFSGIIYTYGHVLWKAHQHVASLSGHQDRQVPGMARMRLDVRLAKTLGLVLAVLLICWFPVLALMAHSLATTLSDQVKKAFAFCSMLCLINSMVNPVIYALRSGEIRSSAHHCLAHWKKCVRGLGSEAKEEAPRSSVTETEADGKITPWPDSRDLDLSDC

| Structure (SMILES) | Ki (read-out: Ki < 0.5 μM) | Ki (read-out: Ki < 5 μM) |
| --- | --- | --- |
| CC1(C)CCC(C)(C)c2cc(C(=O)OCCc3ccc(NC(=O)C4CCC4)cc3)ccc21 [Example 1, 2-{4-[(cyclobutylcarbonyl)amino]phenyl}ethyl 5,5,8,8-tetramethyl-5,6,7,8-tetrahydronaphthalene-2-carboxylate] | < 0.5 µM | < 5 µM |
| CC(C)(C)c1cc(-c2nnc(Cc3ccc(/N=C(/N)c4cccs4)cc3)o2)cc(C(C)(C)C)c1 [Example 2] | < 0.5 µM | < 5 µM |
| CC1(C)CCC(C)(C)c2cc(C(=O)OCc3ccc(C(=O)NC4CCC4)cc3)ccc21 [Example 3] | < 0.5 µM | < 5 µM |
| O=C(OCCc1ccc(NC(=O)C2CCC2)cc1)c1ccc2c(c1)OCCO2 [Example 4] | – | < 5 µM |
| CC(C)(C)c1cc(-c2nc(Cc3ccc(/N=C(/N)c4cccs4)cc3)no2)cc(C(C)(C)C)c1 [Example 5] | < 0.5 µM | < 5 µM |
| CC1(C)CCC(C)(C)c2cc(-c3nnc(CCc4ccc(/N=C(/N)c5cccs5)cc4)o3)ccc21 [Example 6, N′-(4-{2-[5-(5,5,8,8-tetramethyl-5,6,7,8-tetrahydronaphthalen-2-yl)-1,3,4-oxadiazol-2-yl]ethyl}phenyl)thiophene-2-carboximidamide hydrochloride] | – | < 5 µM |
| O=C(OCCc1ccc(NC(=O)C2CCC2)cc1)c1ccc2c(c1)C(=O)CCC2 [Example 7] | – | < 5 µM |
| CN1CCOc2cc(C(=O)OCCc3ccc(NC(=O)C4CCC4)cc3)ccc21 [Example 10] | < 0.5 µM | < 5 µM |
| O=C(OCCc1ccc(NC(=O)C2CCC2)cc1)c1ccc2c(c1)CCC2 [Example 11] | < 0.5 µM | < 5 µM |
| CC(C)(C)c1cc(-c2nnc(Cc3ccc(NC(=O)C4CCC4)cc3)o2)cc(C(C)(C)C)c1 [Example 12] | < 0.5 µM | < 5 µM |
| C=CCNC(=O)Nc1ccc(Cc2nnc(-c3cc(C(C)(C)C)cc(C(C)(C)C)c3)o2)cc1 [Example 13] | < 0.5 µM | < 5 µM |
| CCCNC(=O)Nc1ccc(Cc2nnc(-c3cc(C(C)(C)C)cc(C(C)(C)C)c3)o2)cc1 [Example 14] | < 0.5 µM | < 5 µM |
| O=C(OCCc1ccc(NC(=O)C2CCC2)cc1)c1ccc2c(c1)CCCC2 [Example 15] | < 0.5 µM | < 5 µM |
| CC(C)(C)c1cc(-c2nnc(CCc3ccc(NC(=O)C4CCC4)cc3)o2)cc(C(C)(C)C)c1 [Example 16] | < 0.5 µM | < 5 µM |
| C=CCNC(=O)Nc1ccc(CCc2nnc(-c3cc(C(C)(C)C)cc(C(C)(C)C)c3)o2)cc1 [Example 17] | < 0.5 µM | < 5 µM |
| CCCNC(=O)Nc1ccc(CCc2nnc(-c3cc(C(C)(C)C)cc(C(C)(C)C)c3)o2)cc1 [Example 18] | < 0.5 µM | < 5 µM |
| CC(C)(C)c1cc(-c2nc(Cc3ccc(NC(=O)C4CCC4)cc3)no2)cc(C(C)(C)C)c1 [Example 19] | < 0.5 µM | < 5 µM |
| C=CCNC(=O)Nc1ccc(Cc2noc(-c3cc(C(C)(C)C)cc(C(C)(C)C)c3)n2)cc1 [Example 20] | < 0.5 µM | < 5 µM |
| CCCNC(=O)Nc1ccc(Cc2noc(-c3cc(C(C)(C)C)cc(C(C)(C)C)c3)n2)cc1 [Example 21] | < 0.5 µM | < 5 µM |
| CC(C)(C)c1cc(-c2nnc(CCc3ccc(/N=C(/N)c4cccs4)cc3)o2)cc(C(C)(C)C)c1 [Example 22] | < 0.5 µM | < 5 µM |
| CC(C)(C)c1cc(-c2nnc(NCc3ccc(NC(=O)C4CCC4)cc3)o2)cc(C(C)(C)C)c1 [Example 23] | – | < 5 µM |
| C=CCNC(=O)Nc1ccc(CNc2nnc(-c3cc(C(C)(C)C)cc(C(C)(C)C)c3)o2)cc1 [Example 24] | < 0.5 µM | < 5 µM |
| CC1(C)CCC(C)(C)c2cc(-c3nnc(NCc4ccc(NC(=O)C5CCC5)cc4)o3)ccc21 [Example 25] | < 0.5 µM | < 5 µM |
| C=CCNC(=O)Nc1ccc(CNc2nnc(-c3ccc4c(c3)C(C)(C)CCC4(C)C)o2)cc1 [Example 26] | < 0.5 µM | < 5 µM |
| CC(C)(C)c1cc(-c2nnc(NCc3ccc(/N=C(/N)c4cccs4)cc3)o2)cc(C(C)(C)C)c1 [Example 27] | < 0.5 µM | < 5 µM |
| CC1(C)CCC(C)(C)c2cc(-c3nnc(NCc4ccc(/N=C(/N)c5cccs5)cc4)o3)ccc21 [Example 28] | – | < 5 µM |

| Structure (SMILES) | Ki (read-out: Ki < 0.5 μM) | Ki (read-out: Ki < 5 μM) |
| --- | --- | --- |
| CCCNC(=O)Nc1ccc(CCOC(=O)c2ccc3c(c2)C(C)(C)CCC3(C)C)cc1 [Example 29, 2-(4-{[(propylamino)carbonyl]amino}phenyl)ethyl 5,5,8,8-tetramethyl-5,6,7,8-tetrahydronaphthalene-2-carboxylate] | < 0.5 µM | < 5 µM |
| C=CCNC(=O)Nc1ccc(CCOC(=O)c2ccc3c(c2)C(C)(C)CCC3(C)C)cc1 [Example 30] | < 0.5 µM | < 5 µM |
| CC1(C)CCC(C)(C)c2cc(-c3nnc(CCc4ccc(NC(=O)C5CCC5)cc4)o3)ccc21 [Example 31] | < 0.5 µM | < 5 µM |
| C=CCNC(=O)Nc1ccc(CCc2nnc(-c3ccc4c(c3)C(C)(C)CCC4(C)C)o2)cc1 [Example 32] | < 0.5 µM | < 5 µM |
| CCCNC(=O)Nc1ccc(CCc2nnc(-c3ccc4c(c3)C(C)(C)CCC4(C)C)o2)cc1 [Example 33] | < 0.5 µM | < 5 µM |
| O=C(OCCc1ccc(NC(=O)C2CCC2)cc1)c1ccc2c(c1)OCO2 [Example 34] | – | < 5 µM |
| Cc1cc2c(cc1C(=O)OCCc1ccc(NC(=O)C3CCC3)cc1)C(C)(C)CCC2 [Example 35] | < 0.5 µM | < 5 µM |
| Cc1cc2c(cc1C(=O)OCCc1ccc(NC(=O)C3CCC3)cc1)CCCC2(C)C [Example 36] | < 0.5 µM | < 5 µM |
| CC1(C)CC(C)(C)c2cc(C(=O)OCCc3ccc(NC(=O)C4CCC4)cc3)ccc21 [Example 37] | < 0.5 µM | < 5 µM |
| O=C(OCCc1ccc(NC(=O)C2CCC2)cc1)c1ccc2c(c1)C(=O)CC2 [Example 38] | – | < 5 µM |
| CC1(C)CCC(C)(C)c2cc(-c3coc(CCc4ccc(NC(=O)C5CCC5)cc4)n3)ccc21 [Example 39, N-(4-{2-[4-(5,5,8,8-tetramethyl-5,6,7,8-tetrahydronaphthalen-2-yl)-1,3-oxazol-2-yl]ethyl}phenyl)cyclobutanecarboxamide] | < 0.5 µM | < 5 µM |
| C=CCNC(=O)Nc1ccc(CCc2nc(-c3ccc4c(c3)C(C)(C)CCC4(C)C)co2)cc1 [Example 40] | < 0.5 µM | < 5 µM |
| CCCNC(=O)Nc1ccc(CCc2nc(-c3ccc4c(c3)C(C)(C)CCC4(C)C)co2)cc1 [Example 41] | < 0.5 µM | < 5 µM |
| CC1(C)CCc2cc(C(=O)OCCc3ccc(NC(=O)C4CCC4)cc3)ccc2O1 [Example 42] | < 0.5 µM | < 5 µM |
| Cc1cc2c(cc1C(=O)OCCc1ccc(NC(=O)C3CCC3)cc1)C(C)(C)CC(C)C2(C)C (stereo not shown) [Example 45] | < 0.5 µM | < 5 µM |
| CC(C)(C)c1cc(-c2nnc(CCc3ccc(NC(=O)C4CCC4)cc3)s2)cc(C(C)(C)C)c1 [Example 46] | < 0.5 µM | < 5 µM |
| C=CCNC(=O)Nc1ccc(CCc2nnc(-c3cc(C(C)(C)C)cc(C(C)(C)C)c3)s2)cc1 [Example 47] | < 0.5 µM | < 5 µM |
| CCCNC(=O)Nc1ccc(CCc2nnc(-c3cc(C(C)(C)C)cc(C(C)(C)C)c3)s2)cc1 [Example 48, N-(4-{2-[5-(3,5-di-tert-butylphenyl)-1,3,4-thiadiazol-2-yl]ethyl}phenyl)-N′-propylurea] | < 0.5 µM | < 5 µM |
| Cc1cc2c(cc1C(=O)OCCc1ccc(NC(=O)C3CCC3)cc1)C(C)(C)CCC2(C)C [Example 49] | < 0.5 µM | < 5 µM |
| CC1(C)CCNc2ccc(C(=O)OCCc3ccc(NC(=O)C4CCC4)cc3)cc21 [Example 50] | < 0.5 µM | < 5 µM |
| CC1(C)CCC(C)(C)c2cc(-c3nnc(CCc4ccc(NC(=O)C5CCC5)cc4)s3)ccc21 [Example 51] | < 0.5 µM | < 5 µM |
| C=CCNC(=O)Nc1ccc(CCc2nnc(-c3ccc4c(c3)C(C)(C)CCC4(C)C)s2)cc1 [Example 52] | < 0.5 µM | < 5 µM |
| CCCNC(=O)Nc1ccc(CCc2nnc(-c3ccc4c(c3)C(C)(C)CCC4(C)C)s2)cc1 [Example 53] | < 0.5 µM | < 5 µM |
| CC(=O)Nc1ccc(CCOC(=O)c2ccc3c(c2)C(C)(C)CCC3(C)C)cc1 [Example 54] | < 0.5 µM | < 5 µM |
| CCC(=O)Nc1ccc(CCOC(=O)c2ccc3c(c2)C(C)(C)CCC3(C)C)cc1 [Example 55] | < 0.5 µM | < 5 µM |
| CC(C)C(=O)Nc1ccc(CCOC(=O)c2ccc3c(c2)C(C)(C)CCC3(C)C)cc1 [Example 56] | < 0.5 µM | < 5 µM |

— patent publication US20100056507A1, “PHENYL DERIVATIVES AND THEIR USE AS A MEDICAMENT” (IPSEN PHARMA S.A.S., priority 2006, published 2010)
